Reference: ChEMBL document CHEMBL1201862, “PubChem BioAssay data set” (2004)
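All cell lines were grown in 96-well plates and treated with compound for 48 hours. GI50 is the concentration that inhibits growth by half.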 The source made the active and inactive calls. Rule as the data show it: active = GI50 up to about 1.1 µM and inactive = higher.

Assays:
Assay in all cases: NCI-60 cell line screen, 48 h
786-0 = test system: 786-0
A498 = test system: A498
A549 = test system: A549
ACHN = test system: ACHN
BT-549 = test system: BT-549
CAKI-1 = test system: CAKI-1
CCRF-CEM = test system: CCRF-CEM
COLO 205 = test system: COLO 205
DU-145 = test system: DU-145
EKVX = test system: EKVX
HCC 2998 = test system: HCC 2998
HCT-116 = test system: HCT-116
HCT-15 = test system: HCT-15
HL-60 = test system: HL-60
HOP-62 = test system: HOP-62
HOP-92 = test system: HOP-92
HT-29 = test system: HT-29
Hs-578T = test system: Hs-578T
IGROV-1 = test system: IGROV-1
K562 = test system: K562
KM12 = test system: KM12
LOX IMVI = test system: LOX IMVI
M14 = test system: M14
MCF7 = test system: MCF7
MDA-MB-231 = test system: MDA-MB-231
MDA-MB-435 = test system: MDA-MB-435
MDA-N = test system: MDA-N
MOLT-4 = test system: MOLT-4
NCI-H226 = test system: NCI-H226
NCI-H23 = test system: NCI-H23
NCI-H460 = test system: NCI-H460
NCI-H522 = test system: NCI-H522
NCI/ADR-RES = test system: NCI/ADR-RES
OVCAR-3 = test system: OVCAR-3
OVCAR-4 = test system: OVCAR-4
OVCAR-5 = test system: OVCAR-5
OVCAR-8 = test system: OVCAR-8
PC-3 = test system: PC-3
RPMI-8226 = test system: RPMI-8226
RXF 393 = test system: RXF 393
SF-268 = test system: SF-268
SF-295 = test system: SF-295
SF-539 = test system: SF-539
SK-MEL-28 = test system: SK-MEL-28
SK-MEL-2 = test system: SK-MEL-2
SK-MEL-5 = test system: SK-MEL-5
SK-OV-3 = test system: SK-OV-3
SN12C = test system: SN12C
SNB-19 = test system: SNB-19
SR = test system: SR
SW-620 = test system: SW-620
T47D = test system: T47D
TK-10 = test system: TK-10
U-251 = test system: U-251
UACC-257 = test system: UACC-257
UACC-62 = test system: UACC-62
UO-31 = test system: UO-31
Malme-3M = test system: Malme-3M
SNB-75 = test system: SNB-75

In the case of `C=CC[C@H]1[C@H](O[Si](C)(C)C(C)(C)C)C=CC(=O)[C@@H]1CC(=O)N(Cc1ccccc1)Cc1ccccc1`, the GI50 (786-0) is reported as 17.5 µM (inactive), the GI50 (A498) is reported as 57.5 µM (inactive) and the GI50 (A549) is reported as 20.5 µM (inactive). The GI50 (ACHN) was 15 µM (inactive), the GI50 (BT-549) was 16.9 µM (inactive) and the GI50 (CAKI-1) was 12.4 µM (inactive). For the same compound, the GI50 (CCRF-CEM) was 7.85 µM (inactive), the GI50 (COLO 205) was 12.9 µM (inactive) and the GI50 (DU-145) was 27.2 µM (inactive). The GI50 (EKVX) was 12.9 µM (inactive), the GI50 (HCC 2998) was 20.3 µM (inactive) and the GI50 (HCT-116) was 8.2 µM (inactive). For the same compound, the GI50 (HCT-15) was 9.73 µM, the GI50 (HL-60) was 5.48 µM (inactive) and the GI50 (HOP-62) was 25.6 µM (inactive). The GI50 (HOP-92) was 2.09 µM (inactive), the GI50 (HT-29) was 6.35 µM (inactive) and the GI50 (Hs-578T) was 6.27 µM (inactive). The GI50 (IGROV-1) was 20.8 µM (inactive), the GI50 (K562) was 4.69 µM (inactive) and the GI50 (KM12) was 15.9 µM (inactive). For the same compound, the GI50 (LOX IMVI) was 12.5 µM (inactive), the GI50 (M14) was 18.1 µM (inactive) and the GI50 (MCF7) was 19.5 µM (inactive). For the same compound, the GI50 (MDA-MB-231) was 14.2 µM (inactive), the GI50 (MDA-MB-435) was 20.9 µM (inactive) and the GI50 (MDA-N) was 16.4 µM (inactive). For the same compound, the GI50 (MOLT-4) was 9.93 µM (inactive), the GI50 (NCI-H226) was 11.7 µM (inactive) and the GI50 (NCI-H23) was 5.46 µM (inactive). The GI50 (NCI-H460) was 20.6 µM (inactive), the GI50 (NCI-H522) was 5.01 µM (inactive) and the GI50 (NCI/ADR-RES) was 10.8 µM (inactive). For the same compound, the GI50 (OVCAR-3) was 15.1 µM (inactive), the GI50 (OVCAR-4) was 17.5 µM (inactive) and the GI50 (OVCAR-5) was 32.4 µM (inactive). For the same compound, the GI50 (OVCAR-8) was 16.1 µM (inactive), the GI50 (PC-3) was 10.4 µM (inactive) and the GI50 (RPMI-8226) was 9.89 µM (inactive). The GI50 (RXF 393) was 6.15 µM (inactive), the GI50 (SF-268) was 6.55 µM (inactive) and the GI50 (SF-295) was 15.1 µM (inactive). The GI50 (SF-539) was 25.1 µM (inactive), the GI50 (SK-MEL-28) was 49.5 µM (inactive) and the GI50 (SK-MEL-2) was 14.8 µM (inactive). The GI50 (SK-MEL-5) was 7.83 µM (inactive), the GI50 (SK-OV-3) was 26.1 µM (inactive) and the GI50 (SN12C) was 18.8 µM (inactive). The GI50 (SNB-19) was 29.6 µM (inactive), the GI50 (SR) was 9.29 µM (inactive) and the GI50 (SW-620) was 26.7 µM (inactive). The GI50 (T47D) was 3.3 µM (inactive), the GI50 (TK-10) was 19.2 µM (inactive) and the GI50 (U-251) was 19.3 µM (inactive). For the same compound, the GI50 (UACC-257) was 11.5 µM (inactive), the GI50 (UACC-62) was 13.5 µM (inactive) and the GI50 (UO-31) was 11.7 µM (inactive).

For `C=CCc1cc(-c2n[nH]c(=S)[nH]2)ccc1N/N=N/c1ccc(C(=O)O)cc1`, the GI50 (786-0) was > 100 µM (inactive), the GI50 (A498) was > 100 µM (inactive) and the GI50 (A549) was > 100 µM (inactive). For the same compound, the GI50 (ACHN) was 71.3 µM (inactive), the GI50 (BT-549) was 27.2 µM (inactive) and the GI50 (CAKI-1) was > 100 µM (inactive). For the same compound, the GI50 (CCRF-CEM) was 54 µM (inactive), the GI50 (COLO 205) was 22.6 µM (inactive) and the GI50 (DU-145) was > 100 µM (inactive). For the same compound, the GI50 (EKVX) was > 100 µM (inactive), the GI50 (HCT-116) was > 100 µM (inactive) and the GI50 (HCT-15) was greater than 100 µM. The GI50 (HL-60) was 30.8 µM (inactive), the GI50 (HOP-62) was 81.3 µM (inactive) and the GI50 (HOP-92) was > 100 µM (inactive). The GI50 (HT-29) was > 100 µM (inactive), the GI50 (Hs-578T) was 44.6 µM (inactive) and the GI50 (IGROV-1) was 83 µM (inactive). For the same compound, the GI50 (K562) was 49 µM (inactive), the GI50 (KM12) was 40.2 µM (inactive) and the GI50 (LOX IMVI) was 74.5 µM (inactive). For the same compound, the GI50 (M14) was > 100 µM (inactive), the GI50 (MCF7) was 59.4 µM (inactive) and the GI50 (MDA-MB-231) was > 100 µM (inactive). The GI50 (MDA-MB-435) was 44.8 µM (inactive), the GI50 (MDA-N) was 66.2 µM (inactive) and the GI50 (MOLT-4) was 32.4 µM (inactive). For the same compound, the GI50 (Malme-3M) was 51.6 µM (inactive), the GI50 (NCI-H226) was 42.4 µM (inactive) and the GI50 (NCI-H23) was 48.1 µM (inactive). The GI50 (NCI-H522) was 34.1 µM (inactive), the GI50 (NCI/ADR-RES) was > 100 µM (inactive) and the GI50 (OVCAR-3) was 56 µM (inactive). For the same compound, the GI50 (OVCAR-4) was 44.7 µM (inactive), the GI50 (OVCAR-5) was > 100 µM (inactive) and the GI50 (OVCAR-8) was 38.5 µM (inactive). For the same compound, the GI50 (PC-3) was > 100 µM (inactive), the GI50 (RPMI-8226) was 38.5 µM (inactive) and the GI50 (RXF 393) was 89.5 µM (inactive). The GI50 (SF-268) was 49.7 µM (inactive), the GI50 (SF-295) was 52.4 µM (inactive) and the GI50 (SK-MEL-28) was > 100 µM (inactive). For the same compound, the GI50 (SK-MEL-2) was 58.1 µM (inactive), the GI50 (SK-MEL-5) was 16.7 µM (inactive) and the GI50 (SK-OV-3) was > 100 µM (inactive). For the same compound, the GI50 (SN12C) was > 100 µM (inactive), the GI50 (SNB-19) was > 100 µM (inactive) and the GI50 (SNB-75) was > 100 µM (inactive). For the same compound, the GI50 (SR) was 45.9 µM (inactive), the GI50 (SW-620) was > 100 µM (inactive) and the GI50 (T47D) was 24 µM (inactive). For the same compound, the GI50 (TK-10) was > 100 µM (inactive), the GI50 (U-251) was > 100 µM (inactive) and the GI50 (UACC-257) was 76.9 µM (inactive). For the same compound, the GI50 (UO-31) was > 100 µM (inactive).
